Patent publication US7423182B2, “Aminated polyamines” (University of Florida, priority 2004, dated 2008)
Read-outs that look alike come from different tables or passages of the source.

Assays:
[1] = mice, three weeks after a seven day schedule; cited from earlier work
[2] = tested on: Polyamine pools in L1210 cells; conditions: 48 h of treatment, cited from earlier work
[3] = tested on: L1210 cells; assay: L1210 cell growth inhibition; assay type: cell-based; conditions: Mus musculus
[4] = tested on: Polyamine pools in L1210 cells; assay: Effect on polyamine pools in L1210 cells; assay type: cell-based; conditions: 48 h of treatment

For CCNCCCCNCCCCNCCCCNCC [DEHSPM, Diethylhomospermine], the “drug administered remaining in the liver and kidney as drug or metabolites” value [1] is given as 35% and the “drug remaining in the animal in the form of HSPM” value [1] is given as 90%.

For CCNCCCNCCCCNCCCNCC [DESPM], the PUT ([2]; 30 µM) is given as 0% of untreated controls, the SPD ([2]; 30 µM) is given as 0% of untreated controls and the SPM ([2]; 30 µM) is given as 12% of untreated controls. The PUT ([2]; 150 µM) was 0% of untreated controls, the SPD ([2]; 150 µM) was 0% of untreated controls and the SPM ([2]; 150 µM) was 14% of untreated controls.

In the case of FC(F)(F)CNCCCNCCCCNCCCNCC(F)(F)F [FDESPM], the PUT ([2]; 100 µM) is listed as 100% of untreated controls, the SPD ([2]; 100 µM) is listed as 103% of untreated controls and the SPM ([2]; 100 µM) is listed as 108% of untreated controls.

For CCNCCCNCCC(N)CNCCCNCC (stereo not shown) [6-NH2-DESPM, 6 amino-N^1,N^12-diethylspermine], the IC50 ([3]; 48 h, read-out: IC50 48 h) was 8 µM, the IC50 ([3]; 96 h, read-out: IC50 96 h) was 0.4 µM and the PUT ([4]; 10 µM) was 39 ± 9% of untreated controls. For the same compound, the SPD ([4]; 10 µM) was 16 ± 3% of untreated controls, the SPM ([4]; 10 µM) was 54 ± 11% of untreated controls and the PUT ([4]; 50 µM) was 26 ± 1% of untreated controls. The SPD ([4]; 50 µM) was 7 ± 0% of untreated controls and the SPM ([4]; 50 µM) was 32 ± 1% of untreated controls.
